Test results: US20050282840A1, “Methods of modulating neurotrophin-mediated activity” (PainCeptor Pharma Corporation, priority 2004, published 2005)
Read-outs that look alike come from different tables or passages of the source.

Experiments:
[1] = test system: p75^NTR receptors (PC12 cells); experiment: Basic screening assay: binding of 125I-NGF to PC12 cells; conditions: test compound 50 μM, 0.5 nM 125I-NGF, PC12 cells, 2 h at 4° C., specific binding as percent of control
Procedure: (§1) The compounds were screened for effects on binding of ^125I-BDNF or ^125I-NGF to PC12 cells (p75^NTR receptors), and those that inhibited binding were further tested to determine the EC50 for this inhibition.
(§2) PC12 cells were cultured and prepared for binding assays as described in Example 1.
Lyophilized Serotec mouse 2.5S NGF (Cedarlane Laboratories, Toronto, Canada, cat. # PMP 04Z) was reconstituted under sterile conditions to 1 mg/mL (38 μM) in sterile 0.2% acetic acid, and 100 μL or 50 μL aliquots were stored frozen at −80° C.
(§3) Lypophilized Peprotech human recombinant BDNF (Cedarlane Laboratories, Toronto, Canada, cat. # PE 450-02-10) was reconstituted under sterile conditions to 3.5 μM in sterile HKR/1%BSA, and either used immediately or stored in aliquots of 20 μl at −80° C. Immediately prior to use, a 15 nM (30×) solution of ^125I-BDNF or ^125I-NGF was prepared in HKR buffer, and was used at 0.5 nM final concentration.
(§4) Test Compounds were dissolved to 10 mM in DMSO, and those that were not initially soluble were warmed to 40-50° C. and vortexed. Those compounds that were still not in solution were reported as such. Compounds were then stored in this form at −20° C. until use. Immediately before experiments, 100 mM compounds were diluted to 10 mM in DMSO (1:10), followed by a further dilution to 1 mM (1:10) with distilled water, and a further dilution to 500 μM (1:1) with HKR.
(§5) Assays to determine maximum binding (Bmax), non-specific binding (NSB), and binding in the presence of each test compound (e.g., x, y) were performed at least in duplicate. In a total volume of 300 μL, 4×10^6 PC12 cells were incubated, rotating for 2 h at 4° C. with the following:
(§6) At the conclusion of the binding reaction, 100 μL aliquots of the reaction mixtures were carefully layered over 200 μL of a 10% glycerol solution in a 0.4 mL tube, and subjected to centrifugation in a microcentrifuge for 2 minutes at half maximum speed. The cell pellets containing the bound ^125I-BDNF or ^125I-NGF were then measured using a gamma counter. The mean values of the replicates were then calculated to determine the value for maximum binding (Bmax) and nonspecific binding (NSB), and binding in the presence of test compound at 50 μM (Bx). Specific binding (SB) was measured by subtracting the NSB from the Bmax. Specific binding in the presence of the test compound (SBx) was determined by subtracting the NSB from the Bx for each test compound; and each SBx was divided by SB and multiplied by 100 to give the specific binding in the presence of the compound as a percent of control specific binding.

[2] = target: T1, p75^NTR receptors (PC12 cells) (Rattus norvegicus, UniProt P07174); experiment: Basic screening assay: binding of 125I-BDNF to PC12 cells; conditions: read-out: BDNF Activity % Maximal Binding
T1 construct: endogenous in cells; host or cells: PC12 cells
T1 sequence (P07174 30-425): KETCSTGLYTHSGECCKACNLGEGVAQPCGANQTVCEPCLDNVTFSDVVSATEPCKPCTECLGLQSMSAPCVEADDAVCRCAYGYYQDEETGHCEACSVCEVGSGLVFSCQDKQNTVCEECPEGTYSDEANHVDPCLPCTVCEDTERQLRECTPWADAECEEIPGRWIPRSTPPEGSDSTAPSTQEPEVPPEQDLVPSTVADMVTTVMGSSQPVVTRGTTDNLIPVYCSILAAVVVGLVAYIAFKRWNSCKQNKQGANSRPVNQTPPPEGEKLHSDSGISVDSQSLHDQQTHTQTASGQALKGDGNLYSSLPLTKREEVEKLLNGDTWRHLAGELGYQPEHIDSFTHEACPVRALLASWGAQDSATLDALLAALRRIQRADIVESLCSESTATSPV
T1 sequence (P23560 129-247 partner): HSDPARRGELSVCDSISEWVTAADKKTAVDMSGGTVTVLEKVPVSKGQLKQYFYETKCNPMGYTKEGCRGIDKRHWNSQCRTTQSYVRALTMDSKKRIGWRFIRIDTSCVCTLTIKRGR
Procedure: as §1, §2, §3, §4, §5
as §6, with “Bmax.” for “Bmax. Specific binding in the presence of the test compound (SBx) was determined by subtracting the NSB from the Bx for each test compound; and each SBx was divided by SB and multiplied by 100 to give the specific binding in the presence of the compound as a percent of control specific binding.”

[3] = Table 2, test compound 50 μM, 0.5 nM 125I-BDNF, PC12 cells, 2 h at 4° C., specific binding as percent of control
[4] = Table 1, test compound 50 μM, 0.5 nM 125I-BDNF, PC12 cells, 2 h at 4° C., specific binding as percent of control
[5] = Table 4, test compound 50 μM, 0.5 nM 125I-BDNF, PC12 cells, 2 h at 4° C., specific binding as percent of control

Row | Structure (SMILES) | NGF Activity % Maximal Binding ([1]; Table 1) | activity at 50 µM [2, 4] | NGF Activity % Maximal Binding ([1]; Table 4) | activity at 50 µM [2, 5] | other results
1 | O=C(O)c1ccc(Cl)c(-c2ccc(/C=C3/NC(=O)N(Cc4ccccc4F)C3=O)o2)c1 [Compound 72, 4-Chloro-3-{5-[1-(2-fluorobenzyl)-2,5-dioxo-imidazolidin-4-ylidenemethyl]furan-2-yl}benzoic acid] |  |  |  |  | NGF Activity % Maximal Binding ([1]; Table 2): X (40 < X < 50); activity at 50 µM [2, 3]: 0 to 10%
2 | O=C(O)c1ccc(-c2ccc(/C=C3/NC(=O)N(Cc4ccccc4F)C3=O)o2)cc1Cl [Compound 27, 2-Chloro-4-{5-[1-(2-fluorobenzyl)-2,5-dioxo-imidazolidin-4-ylidenemethyl]furan-2-yl}benzoic acid] | * (50 < *) | 0 to 10% |  |  | 
3 | O=C(O)CCN1C(=O)C(=Cc2ccc(-c3ccc([N+](=O)[O-])cc3)o2)SC1=S [Compound 10, 3-{5-[5-(4-Nitrophenyl)furan-2-ylmethylene]-4-oxo-2-thioxo-thiazolidin-3-yl}-propionic acid] | * (50 < *) | 0 to 10% |  |  | 
4 | COC(=O)CN1C(=O)S/C(=C/c2ccc(-c3ccc(C(=O)O)cc3)o2)C1=O [Compound 79, 4-[5-(3-Methoxycarbonylmethyl-2,4-dioxo-thiazolidin-5-ylidenemethyl)furan-2-yl]benzoic acid] |  |  |  |  | NGF Activity % Maximal Binding ([1]; Table 2): X (40 < X < 50); activity at 50 µM [2, 3]: 10 to 20%
5 | Cc1cc([N+](=O)[O-])ccc1-c1ccc(/C=C2/C(=O)NC(=O)N(C)C2=O)o1 [Compound 53, 1-Methyl-5-[5-(2-methyl-4-nitrophenyl)furan-2-ylmethylene]-pyrimidine-2,4,6-trione] | * (50 < *) |  |  |  | activity at 50 µM [2]: 30 to 40%
6 | Cc1ccc(-c2ccc(/C=C3/NC(=O)N(Cc4ccccc4F)C3=O)o2)cc1[N+](=O)[O-] [Compound 129, 3-(2-Fluorobenzyl)-5-[5-(4-methyl-3-nitrophenyl)furan-2-ylmethylene]-imidazolidine-2,4-dione] |  |  | * (50 < *) | > 50% | 
7 | CN1C(=O)S/C(=C/c2ccc(-c3ccc(C(=O)O)c(Cl)c3)o2)C1=O [Compound 80, 2-Chloro-4-[5-(3-methyl-2,4-dioxo-thiazolidin-5-ylidenemethyl)furan-2-yl]benzoic acid] |  |  |  |  | NGF Activity % Maximal Binding ([1]; Table 2): X (40 < X < 50); activity at 50 µM [2, 3]: 10 to 20%
8 | O=C(O)c1ccc(-c2ccc(/C=C3/NC(=O)N(Cc4ccccc4F)C3=O)o2)cc1 [Compound 136, 4-{5-[1-(2-Fluorobenzyl)-2,5-dioxo-imidazolidin-4-ylidenemethyl]furan-2-yl}benzoic acid] |  |  | * (50 < *) | > 50% | 
9 | O=C1C(=Cc2ccc(-c3ccc([N+](=O)[O-])cc3)o2)SC(=S)N1Cc1cccnc1 [Compound 59, 5-[5-(4-Nitrophenyl)furan-2-ylmethylene]-3-pyridin-3-ylmethyl-2-thioxo-thiazolidin-4-one] | * (50 < *) | 40 to 50% |  |  | 
10 | COc1cc([N+](=O)[O-])ccc1-c1ccc(/C=C2\NC(=S)NC2=O)o1 [Compound 90, 5-[5-(2-Methoxy-4-nitrophenyl)furan-2-ylmethylene]-2-thioxo-imidazolidin-4-one] |  |  | * (50 < *) | > 50% | 
11 | CSC1=NC(=Cc2ccc(-c3cccc([N+](=O)[O-])c3)o2)C(=O)S1 [Compound 112, 2-Methylsulfanyl-4-[5-(3-nitrophenyl)furan-2-ylmethylene]-4H-thiazol-5-one] |  |  | * (50 < *) | > 50% | 
12 | Cc1ccc(C(=O)O)cc1-c1ccc(/C=C2/NC(=O)N(c3ccccc3)C2=O)o1 [Compound 16, 3-[5-(2,5-Dioxo-1-phenyl-imidazolidin-4-ylidenemethyl)furan-2-yl]-4-methylbenzoic acid] | * (50 < *) | 0 to 10% |  |  | 
13 | Cc1c(-c2ccc(C=C3C(=O)NC(=O)NC3=O)o2)cccc1[N+](=O)[O-] [Compound 109, 5-[5-(2-Methyl-3-nitrophenyl)furan-2-ylmethylene]-pyrimidine-2,4,6-trione] |  |  | * (50 < *) |  | activity at 50 µM [2]: > 50%
14 | COC(=O)c1ccc(-c2ccc(C=C3C(=O)NC(=S)NC3=O)o2)cc1 [Compound 19, 4-[5-(4,6-Dioxo-2-thioxo-tetrahydro-pyrimidin-5-ylidenemethyl)furan-2-yl]benzoic acid methyl ester] | * (50 < *) |  |  |  | activity at 50 µM [2]: 0 to 10%
15 | CCOC(=O)c1ccc(-c2ccc(/C=C3/NC(=O)N(c4ccccc4)C3=O)o2)cc1 [Compound 54, 4-[5-(2,5-Dioxo-1-phenyl-imidazolidin-4-ylidenemethyl)furan-2-yl]benzoic acid ethyl ester] | * (50 < *) | 30 to 40% |  |  | 
16 | Cc1cc(-c2ccc(C=C3C(=O)NC(=O)NC3=O)o2)ccc1[N+](=O)[O-] [Compound 96, 5-[5-(3-Methyl-4-nitrophenyl)furan-2-ylmethylene]-pyrimidine-2,4,6-trione] |  |  | * (50 < *) |  | activity at 50 µM [2]: > 50%
17 | COc1cc([N+](=O)[O-])ccc1-c1ccc(/C=C2\SC(=S)NC2=O)o1 [Compound 101, 5-[5-(2-Methoxy-4-nitrophenyl)furan-2-ylmethylene]-2-thioxo-thiazolidin-4-one] |  |  | * (50 < *) | > 50% | 
18 | CCOC(=O)CN1C(=O)S/C(=C/c2ccc(-c3ccc([N+](=O)[O-])cc3OC)o2)C1=O [Compound 118, {5-[5-(2-Methoxy-4-nitrophenyl)furan-2-ylmethylene]-2,4-dioxo-thiazolidin-3-yl}-acetic acid ethyl ester] |  |  | * (50 < *) | > 50% | 
19 | O=C1NC(=S)S/C1=C/c1ccc(-c2ccc(Cl)c([N+](=O)[O-])c2)o1 [Compound 51, 5-[5-(4-Chloro-3-nitrophenyl)furan-2-ylmethylene]-2-thioxo-thiazolidin-4-one] | * (50 < *) | 30 to 40% |  |  | 
20 | COc1cc([N+](=O)[O-])ccc1-c1ccc(/C=C2/NC(=O)N(c3cccc(Cl)c3)C2=O)o1 [Compound 137, 3-(3-Chlorophenyl)-5-[5-(2-methoxy-4-nitrophenyl)furan-2-ylmethylene]-imidazolidine-2,4-dione] |  |  | * (50 < *) | > 50% | 
